# In patent US20230302025A1, “METHODS FOR MAINTAINING MICROVASCULAR INTEGRITY” (SCISPARC LTD., priority 2020, published 2023):
# Entries after “also recorded” stand apart in the source; their conditions may differ.
# Legend:
# mTBI rats [1] = assay: Electrocorticographic recording of paroxysmal slow wave events (PSWEs) in repeated mild TBI rat model; assay type: in vivo, Sprague-Dawley rats
# [2] = test system: cortical microvasculature (BBB) of mTBI rats; assay: Intravital microscopy (open window, fluorescent angiography) of cortical microvascular permeability in repeated mild TBI rat model; assay type: in vivo, Sprague-Dawley rats; details: repeated THC 0.002 mg/kg i.p.; 6-8 days after first injury; vs vehicle-injected controls
# [3] = test system: blood-brain barrier (BBB) of mTBI rats; assay: Contrast-enhanced MRI of blood-brain barrier permeability in repeated mild TBI rat model; assay type: in vivo, Sprague-Dawley rats
# mTBI rats [4] = assay: Neurological scoring / neurological complications after repeated mild TBI; assay type: in vivo, Sprague-Dawley rats; details: daily injection of THC 0.002 mg/kg i.p.; 60% without THC
# [5] = intravenous, humans; cited from earlier work
Structure (SMILES),"number of PSWEs (mTBI rats [1]; repeated THC 0.002 mg/kg i.p., ECoG 3-4 weeks following injury)","number of PSWEs (mTBI rats [1]; single THC dose (THC1) 0.002 mg/kg i.p. after first impact, vs controls, FIG. 3B)",cortical microvascular (BBB) permeability [2],"% of brain volume with pathological (damaged) BBB ([3]; repeated (daily, after each impact) THC 0.002 mg/kg i.p., CE-MRI after rmTBI, vs TBI vehicle)","% of brain volume with pathological voxels compared to non-injured controls ([3]; repeated THC 0.002 mg/kg i.p., CE-MRI, FIG. 1D)","effect on trauma-induced BBB breakdown ([3]; repeated THC, data from both CE-MRI and intravital microscopy)",risk for neurological complications (mTBI rats [4]) [%],estimated lethal dose [5] [mg/kg]
"CCCCCc1cc(O)c2c(c1)OC(C)(C)[C@@H]1CCC(C)=C[C@@H]21 [THC, Δ9-tetrahydrocannabinol]",mild reduction; also recorded: lower occurrence,significant increase,lower; also recorded: reduced,Moderate decrease,not different compared to controls,mild protective and therapeutic effect,35,–
"CCCCCc1cc(O)c2c(c1)OC(C)(C)[C@@H]1CCC(C)=C[C@@H]21 [dronabinol, (−)-trans-[…]9-tetrahydrocannabinol]",–,–,–,–,–,–,–,30
